Measurements: ChEMBL document CHEMBL6127070, “Design, synthesis, and molecular dynamic simulations of some novel benzo[d]thiazoles with anti-virulence activity against Pseudomonas aeruginosa” (Eur J Med Chem, 2024)
Activity calls are given as the source filed them. No cut-off for these calls is given here.

Tests used:
Klebsiella pneumoniae = assay: Antimicrobial activity against Klebsiella pneumoniae ATCC 700603 assessed as growth inhibition zone by agar diffusion method; assay type: functional
Escherichia coli = assay: Antimicrobial activity against Escherichia coli ATCC 25922 assessed as growth inhibition zone by agar diffusion method; assay type: functional
Pseudomonas aeruginosa [1] = assay: Antimicrobial activity against Pseudomonas aeruginosa ATCC 27853 assessed as growth inhibition zone by agar diffusion method; assay type: functional
Staphylococcus aureus = assay: Antimicrobial activity against Staphylococcus aureus ATCC 43300 assessed as growth inhibition zone by agar diffusion method; assay type: functional
Bacillus subtilis = assay: Antimicrobial activity against Bacillus subtilis ATCC 6633 assessed as growth inhibition zone by agar diffusion method; assay type: functional
Candida albicans = assay: Antimicrobial activity against Candida albicans ATCC 60193 assessed as growth inhibition zone by agar diffusion method; assay type: functional
Pseudomonas aeruginosa [2] = assay: Antibacterial activity against Pseudomonas aeruginosa by CLSI protocol based broth microdilution method; assay type: functional; settings: for MIC: Pseudomonas aeruginosa
Pseudomonas aeruginosa [3] = assay: Antibacterial activity against Pseudomonas aeruginosa assessed as effect on bacterial growth at 9.375 microg/ml incubated for 24 hrs by growth curve analysis; assay type: functional, organism-based; settings: dose 9.375 µg/ml
Pseudomonas aeruginosa [4] = assay: Inhibition of biofilm formation in Pseudomonas aeruginosa at sub-MIC by crystal violet staining based analysis relative to control; assay type: functional
Pseudomonas aeruginosa [5] = assay: Inhibition of biofilm formation in Pseudomonas aeruginosa assessed as absorbance by measuring OD at 570 nm at sub-MIC by crystal violet staining based analysis (reference value: 0.635 +/- 0.014); assay type: functional
Pseudomonas aeruginosa [6] = assay: Antivirulence activity in Pseudomonas aeruginosa assessed as inhibition of pyocyanin production at sub-MIC by chloroform-HCl extraction method relative to control; assay type: functional
Pseudomonas aeruginosa [7] = assay: Antivirulence activity in Pseudomonas aeruginosa assessed as inhibition of rhamnolipids production at sub-MIC by spectrophotometric method relative to control; assay type: functional
Pseudomonas aeruginosa [8] = assay: Antivirulence activity in Pseudomonas aeruginosa assessed as inhibition of pyocyanin production by measuring OD at […] at sub-MIC by chloroform-HCl extraction method relative to control; assay type: functional
Pseudomonas aeruginosa [9] = assay: Antibacterial activity against Pseudomonas aeruginosa assessed as effect on bacterial growth at 18.75 microg/ml incubated for 24 hrs by growth curve analysis; assay type: functional, organism-based; settings: dose 18.75 µg/ml
Pseudomonas aeruginosa [10] = assay: Antibacterial activity against Pseudomonas aeruginosa assessed as bacterial mortality relative to control; assay type: functional
[11] = target: T1, Transcriptional activator protein LasR (Pseudomonas aeruginosa (strain ATCC 15692 / PAO1 / 1C / PRS 101 / LMG12228), UniProt P25084); assay: Inhibition of Pseudomonas aeruginosa LasR in Escherichia coli DH5 transfected with lacZ reporter and JN105 production plasmid incubated for 4 hrs by beta-galactosidase reporter based miller test
T1 sequence (P25084 whole entry): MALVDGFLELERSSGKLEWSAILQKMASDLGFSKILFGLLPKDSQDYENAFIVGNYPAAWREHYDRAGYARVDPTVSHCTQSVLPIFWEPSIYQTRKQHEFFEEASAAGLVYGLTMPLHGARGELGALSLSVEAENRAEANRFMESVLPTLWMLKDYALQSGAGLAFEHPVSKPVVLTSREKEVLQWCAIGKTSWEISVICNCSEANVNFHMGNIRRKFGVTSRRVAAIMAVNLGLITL

Pseudomonas aeruginosa [12] = assay: Antibacterial activity against Pseudomonas aeruginosa assessed as effect on bacterial growth at 37.5 microg/ml incubated for 24 hrs by growth curve analysis; assay type: functional, organism-based; settings: dose 37.5 µg/ml

| SMILES | inhibition zone (IZ) (Klebsiella pneumoniae) [mm] | inhibition zone (IZ) (Escherichia coli) [mm] | inhibition zone (IZ) (Pseudomonas aeruginosa [1]) [mm] | inhibition zone (IZ) (Staphylococcus aureus) [mm] | inhibition zone (IZ) (Bacillus subtilis) [mm] | inhibition zone (IZ) (Candida albicans) [mm] | SubMIC (Pseudomonas aeruginosa [2]) [µg/mL] | MIC (Pseudomonas aeruginosa [2]) | Activity (Pseudomonas aeruginosa [3]) | inhibition (INH) (Pseudomonas aeruginosa [4]) [%] | OD (Pseudomonas aeruginosa [5]) | inhibition (INH) (Pseudomonas aeruginosa [6]) [%] | inhibition (INH) (Pseudomonas aeruginosa [7]) [%] | OD (Pseudomonas aeruginosa [8]) | Activity (Pseudomonas aeruginosa [9]) | mortality (Pseudomonas aeruginosa [10]) [%] | IC50 [11] [nM] | Activity (Pseudomonas aeruginosa [12]) | inhibition (Pseudomonas aeruginosa [4]) | inhibition (Pseudomonas aeruginosa [7]) |
| --- | --- | --- | --- | --- | --- | --- | --- | --- | --- | --- | --- | --- | --- | --- | --- | --- | --- | --- | --- | --- |
| CC1CCN(c2ccc(/C=C(\C#N)c3nc4ccccc4s3)cc2)CC1 | 27 | 22 | 22 | 22 | 20 | 24 | 9.375 | 18.8 µg/mL | inactive | 50.1 | 0.317 | 40.7 | 30.9 | 0.264 |  |  |  |  |  |  |
| N#C/C(=C\c1ccc(N2CCOCC2)cc1)c1nc2ccccc2s1 | 20 | 24 | 21 | 23 | 19 | 24 | 18.75 | 37.5 µg/mL |  | 39.7 | 0.383 | 35.1 | 24.3 | 0.289 | inactive |  |  |  |  |  |
| O=C(O)c1cn(C2CC2)c2cc(N3CCNCC3)c(F)cc2c1=O [CIPROFLOXACIN] |  |  |  |  |  |  |  |  |  |  |  |  |  |  |  | 16.99 |  |  |  |  |
| N#C/C(=C\c1ccc(N2CCCC2)cc1)c1nc2ccccc2s1 | 26 | 24 | 25 | 27 | 22 | 28 | 9.375 | 18.8 µg/mL | inactive | 63.9 | 0.229 | 64.9 | 51 | 0.156 |  |  | 1550 |  |  |  |
| Cc1nc2c(-c3nc4ccccc4s3)cnn2c(C)c1Cl | 22 | 21 | 21 | 19 | 21 | 22 | 18.75 | 37.5 µg/mL |  | 36.1 | 0.406 | 31.5 | 21.2 | 0.305 | inactive |  |  |  |  |  |
| OC(Cn1cncn1)(Cn1cncn1)c1ccc(F)cc1F [FLUCONAZOLE] |  |  |  |  |  | 30 |  |  |  |  |  |  |  |  |  |  |  |  |  |  |
| N#C/C(=C\c1ccc(N2CCCCC2)cc1)c1nc2ccccc2s1 | 24 | 25 | 23 | 24 | 21 | 25 | 9.375 | 18.8 µg/mL | inactive | 52.3 | 0.303 | 43.6 | 34.9 | 0.251 |  |  |  |  |  |  |
| Brc1ccc(-c2ccnc3c(-c4nc5ccccc5s4)cnn23)cc1 | 17 | 18 | 19 | 19 | 16 | 20 | 18.75 | 37.5 µg/mL |  | 20 | 0.508 | 15.5 | 9.5 | 0.376 | inactive |  |  |  |  |  |
| CN1CCN(c2ccc(/C=C(\C#N)c3nc4ccccc4s3)cc2)CC1 | 27 | 26 | 26 | 28 | 25 | 30 | 9.375 | 18.8 µg/mL | inactive | 77 | 0.146 | 74.6 | 58.5 | 0.113 |  |  | 1370 |  |  |  |
| Fc1ccc(-c2ccnc3c(-c4nc5ccccc5s4)cnn23)cc1 | 26 | 21 | 25 | 24 | 25 | 30 | 9.375 | 18.8 µg/mL | inactive | 69.4 | 0.194 | 69.4 | 54.3 | 0.136 |  |  | 1100 |  |  |  |
| CC[C@H]1OC(=O)[C@H](C)[C@@H](O[C@H]2C[C@@](C)(OC)[C@@H](O)[C@H](C)O2)[C@H](C)[C@@H](O[C@@H]2O[C@H](C)C[C@H](N(C)C)[C@H]2O)[C@](C)(OC)C[C@@H](C)C(=O)[C@H](C)[C@@H](O)[C@]1(C)O [CLARITHROMYCIN] |  |  |  |  |  |  |  |  |  |  |  |  |  |  |  | 29.11 |  |  |  |  |
| Clc1ccc(-c2ccnc3c(-c4nc5ccccc5s4)cnn23)cc1 | 25 | 20 | 23 | 25 | 21 | 26 | 9.375 | 18.8 µg/mL | inactive | 54.8 | 0.287 | 53.9 | 42.5 | 0.205 |  |  |  |  |  |  |
| C[C@@H](O)[C@H]1C(=O)N2C(C(=O)O)=C(SCCNC=N)C[C@H]12 [IMIPENEM ANHYDROUS] | 18 | 22 | 12 | 24 | 20 |  |  | 93.9 µM |  |  |  |  |  |  |  |  |  |  |  |  |
| Cc1cc(C)n2ncc(-c3nc4ccccc4s3)c2n1 | 19 | 17 | 17 | 18 | 15 | 20 | 37.5 | 75 µg/mL |  |  | 0.631 | 8.5 |  | 0.407 |  |  |  | inactive | inactive | inactive |
| COc1ccc(-c2ccnc3c(-c4nc5ccccc5s4)cnn23)cc1 | 19 | 22 | 22 | 17 | 19 | 23 | 9.375 | 18.8 µg/mL | inactive | 46.1 | 0.342 | 39.8 | 28.6 | 0.268 |  |  |  |  |  |  |
| Cc1ccc(-c2ccnc3c(-c4nc5ccccc5s4)cnn23)cc1 | 26 | 22 | 24 | 26 | 20 | 28 | 9.375 | 18.8 µg/mL | inactive | 59.1 | 0.26 | 59.6 | 45.3 | 0.18 |  |  |  |  |  |  |
| Nc1[nH]ncc1-c1nc2ccccc2s1 | 18 | 16 | 16 | 15 | 15 | 17 | 37.5 | 75 µg/mL |  |  | 0.612 | 4.5 |  | 0.425 |  |  |  | inactive | inactive | inactive |
| c1ccc(-c2ccnc3c(-c4nc5ccccc5s4)cnn23)cc1 | 21 | 19 | 20 | 20 | 17 | 21 | 18.75 | 37.5 µg/mL |  | 25.7 | 0.472 | 22.2 | 13.3 | 0.346 | inactive |  |  |  |  |  |
